The target of this assay is T1, hOX2R (Homo sapiens, UniProt O43614).
T1 construct: expressed in transfected cells; host or cells: CHO cells (G418 selection)
T1 sequence (O43614 1-444): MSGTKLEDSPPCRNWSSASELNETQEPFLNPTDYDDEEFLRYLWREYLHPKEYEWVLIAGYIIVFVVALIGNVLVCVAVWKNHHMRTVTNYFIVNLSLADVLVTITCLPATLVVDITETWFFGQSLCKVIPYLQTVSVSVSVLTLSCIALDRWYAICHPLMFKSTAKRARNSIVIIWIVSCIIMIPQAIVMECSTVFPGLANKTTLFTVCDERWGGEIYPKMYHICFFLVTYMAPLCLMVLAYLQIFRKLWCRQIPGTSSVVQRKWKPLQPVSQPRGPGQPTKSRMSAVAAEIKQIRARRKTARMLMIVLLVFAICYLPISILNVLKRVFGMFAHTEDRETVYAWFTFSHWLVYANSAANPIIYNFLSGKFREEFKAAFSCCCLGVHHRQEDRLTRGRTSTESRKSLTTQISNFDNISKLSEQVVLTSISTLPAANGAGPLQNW
Nature of the assay: hOX2R IPone assay (orexin receptor agonism). Format: cell-based. To be noted: IPone readout; for hOX2R_Ipone max %act: maximal activation; for pEC50: orexin receptor agonist, read-out: hOX2R_IPone EC50.

The values below come from patent US12686690B2, “Macrocyclic urea orexin receptor agonists” (Merck Sharp & Dohme LLC, priority 2020, dated 2026).

pEC50: −log10 of the molar value.

Consider `CCN1C(=O)NC(C)/C=C/CC(F)(F)COc2cn3ccnc3c(n2)-c2cc(ncc2OC)[C@H]1C` (stereo partly drawn) [Example 220, (1^7E,3R,8E)-4-ethyl-11,11-difluoro-25-methoxy-3,7-dimethyl-13-oxa-4,6-diaza-1(6,8)-imidazo[1,2-a]pyrazina-2(4,2)-pyridinacyclotridecaphan-8-en-5-one], for which the hOX2R_Ipone max %act came out at 108.5% and the pEC50 (in general, the negative decadic logarithm of the EC50, by convention in mol/L) is 7.92.
For `CCN1C(=O)N[C@@H](C)CCCC(F)(F)COc2nc(cn3ccnc23)-c2cc(ncc2OC)[C@H]1C` [Example 221, (3R,7S,E)-4-ethyl-11,11-difluoro-25-methoxy-3,7-dimethyl-13-oxa-4,6-diaza-1(6,8)-imidazo[1,2-a]pyrazina-2(4,2)-pyridinacyclotridecaphan-5-one], in that order: 90.75% and 6.39.
On to `CCN1C(=O)N[C@@H](C)/C=C/CC2(CCOCC2)COc2nc(cn3ccnc23)-c2cc(ncc2OC)[C@H]1C` [Example 222, (3′R,7'S,7′E,8′E)-4′-ethyl-5′-methoxy-3′,7′-dimethyl-2,3,5,6-tetrahydrospiro[pyran-4,11′-13-oxa-4,6-diaza-1(6,8)-imidazo[1,2-a]pyrazina-2(4,2)-pyridinacyclotridecaphanen]-8′-en-5′-one], for which the hOX2R_Ipone max %act was determined as 61.55% and the negative-log EC50 (pEC50) is 6.12.
The like results for `CCN1C(=O)NC(C(N)=O)CCCCCOc2nc(cn3ccnc23)-c2cc(ncc2F)[C@H]1C` (stereo partly drawn) [Example 225, (3R,E)-4-ethyl-25-fluoro-3-methyl-5-oxo-13-oxa-4,6-diaza-1(6,8)-imidazo[1,2-a]pyrazina-2(4,2)-pyridinacyclotridecaphane-7-carboxamide] were, in that order, 78.64% and 6.54.
The like results for “(3R,7S,E)-4-ethyl-25-methoxy-3-methyl-7-(3,3,3-trifluoropropyl)-13-oxa-10-thia-4,6-diaza-1(6,8)-[1,2,4]triazolo[1,5-a]pyrazina-2(4,2)-pyridinacyclotridecaphan-5-one [Example 134]” were, in that order, 100.6% and 8.19.
For “(3R,E)-4-ethyl-25-methoxy-3- methyl-7-(2,2,3,3- tetrafluoropropyl)-13-oxa-4,6- diaza-1(6,8)-imidazo[1,2-a] pyrazina-2(4,2)-pyridina- cyclotridecaphan-5-one [Example 187]”, in that order: 104.1% and 9.21.
For the molecule “(9R,13R,E)-14-Cyclopropyl-12-ethyl-13-methyl-9-(3,3,3-trifluoropropyl)-3-oxa-10,12-diaza-1(5,2)-thiazola-2(6,8)-imidazo[1,2-a]pyrazinacyclotridecaphan-11-one [Example 209]”, the hOX2R_Ipone max %act is 99.62% and the pEC50 was 8.96.
